Values quoted from earlier work as cited in US20130095160A1, “RESORBABLE POLYSTATIN BIOMATERIALS” (priority 2011, published 2013).

What was measured:
SR-BI receptor = biological target: T1, SR-BI receptor (Homo sapiens, UniProt Q8WTV0); conditions: via activation of the SR-BI receptor
T1 sequence (Q8WTV0 1-552): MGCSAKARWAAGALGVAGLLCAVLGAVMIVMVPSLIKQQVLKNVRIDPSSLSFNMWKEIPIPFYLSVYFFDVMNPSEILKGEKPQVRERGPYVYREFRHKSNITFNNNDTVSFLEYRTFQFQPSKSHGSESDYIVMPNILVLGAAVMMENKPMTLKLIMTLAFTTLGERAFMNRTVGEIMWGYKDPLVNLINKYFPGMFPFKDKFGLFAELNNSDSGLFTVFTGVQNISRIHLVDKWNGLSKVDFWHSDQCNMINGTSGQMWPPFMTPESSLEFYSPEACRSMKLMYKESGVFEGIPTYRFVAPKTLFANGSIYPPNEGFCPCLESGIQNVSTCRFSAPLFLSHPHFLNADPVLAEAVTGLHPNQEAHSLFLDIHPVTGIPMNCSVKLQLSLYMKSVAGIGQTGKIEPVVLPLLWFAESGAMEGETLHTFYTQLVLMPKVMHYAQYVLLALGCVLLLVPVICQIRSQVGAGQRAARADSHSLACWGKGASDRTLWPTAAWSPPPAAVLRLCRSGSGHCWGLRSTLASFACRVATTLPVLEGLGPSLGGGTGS

eNOS = conditions: 12 mg (or 10(−5) M lovastatin); previously shown

## CC[C@H](C)C(=O)O[C@H]1C[C@@H](C)C=C2C=C[C@H](C)[C@H](CC[C@@H]3C[C@@H](O)CC(=O)O3)[C@H]21 [lovastatin]
SR-BI receptor
  efficiency at generating EDNO compared with HDL: more efficient than HDL
eNOS
  eNOS activation in vitro: maximally effective
